According to patent publication US20250195536A1, “BICYCLOOCTANE KRAS INHIBITORS” (Incyte Corporation, priority 2023, published 2025):

Assays:
KRAS G12V = KRAS G12V (Homo sapiens, UniProt P01116, G12V); assay: GDP-GTP exchange assay (KRAS G12V); type: biochemical; settings: bodipy-GDP/GppNHp exchange with SOS1; 3 h incubation after GppNHp-SOS1
Experimental: (§1) The inhibitor potency of the exemplified compounds was determined in a fluorescence based guanine nucleotide exchange assay, which measures the exchange of bodipy-GDP (fluorescently labeled GDP) for GppNHp (Non-hydrolyzable GTP analog) to generate the active state of KRAS in the presence of SOS1 (guanine nucleotide exchange factor). Inhibitors were serially diluted in DMSO and a volume of 0.1 μL was transferred to the wells of a black low volume 384-well plate. 5 μL/well volume of bodipy-loaded KRAS G12D diluted to 2.5 nM in assay buffer (25 mM Hepes pH 7.5, 50 mM NaCl, 10 mM MgCl2 and 0.01% Brij-35) was added to the plate and pre-incubated with inhibitor for 4 h at r.t. Appropriate controls (enzyme with no inhibitor or with a G12D inhibitor) were included on the plate. The exchange was initiated by the addition of a 5 μL/well volume containing 1 mM GppNHp and 300 nM SOS1 in assay buffer. The 10 μL/well reaction concentration of the bodipy-loaded KRAS G12D, GppNHp, and SOS1 were 2.5 nM, 500 μM, and 150 nM, respectively. The reaction plates were incubated at r.t. for 2 h, a time estimated for complete GDP-GTP exchange in the absence of inhibitor. For the KRAS G12V mutant, similar guanine nucleotide exchange assays were used with 2.5 nM as final concentration for the bodipy loaded KRAS proteins and 3 h incubation after adding GppNHp-SOS1 mixture. A cyclic peptide described to selectively bind G12D mutant (Sakamoto et al., BBRC 484.3 (2017), 605-611) or internal compounds with confirmed binding were used as positive controls in the assay plates. Fluorescence intensities were measured on a PheraStar plate reader instrument (BMG Labtech) with excitation at 485 nm and emission at 520 nm.
(§2) Either GraphPad prism or Genedata Screener SmartFit was used to analyze the data. The IC50 values were derived by fitting the data to a four parameter logistic equation producing a sigmoidal dose-response curve with a variable Hill coefficient.
(§3) The symbol “⬆” indicates IC50 100 nM, “⬆⬆” indicates IC50 >100 nM but ≤1 μM; and “⬆⬆⬆” indicates IC50 is >1 μM but ≤5 μM, “⬆⬆⬆⬆” indicates IC50 is >5 μM but ≤10 μM. “NA” indicates IC50 not available.

KRAS G12D = KRAS G12D (Homo sapiens, UniProt P01116, G12D); assay: GDP-GTP exchange assay (KRAS G12D); type: biochemical; settings: bodipy-GDP/GppNHp exchange with SOS1; 4 h pre-incubation, 2 h reaction
KRAS G12D, sequence (P01116 1-188 isoform P01116-2 G12D): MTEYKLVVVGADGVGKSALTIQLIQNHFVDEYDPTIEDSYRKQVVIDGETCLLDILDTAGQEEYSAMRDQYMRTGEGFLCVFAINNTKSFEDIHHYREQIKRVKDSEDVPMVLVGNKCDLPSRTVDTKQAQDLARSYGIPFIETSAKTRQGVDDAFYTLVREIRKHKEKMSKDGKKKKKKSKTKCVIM
Experimental: as §1, §2, §3
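Also: one dagger IC50 up to 100 nM and two daggers above 100 nM up to 1 μM.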

KRAS G12V, sequence (P01116 1-188 isoform P01116-2 G12V): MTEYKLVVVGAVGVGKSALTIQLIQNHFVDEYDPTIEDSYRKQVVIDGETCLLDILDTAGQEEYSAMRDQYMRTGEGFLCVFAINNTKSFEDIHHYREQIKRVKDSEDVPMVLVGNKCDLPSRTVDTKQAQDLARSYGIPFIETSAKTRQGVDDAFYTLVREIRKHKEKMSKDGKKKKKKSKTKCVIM

G12V_exchange (KRAS_G12V exchange assay IC50) (KRAS G12V) | G12D_exchange (KRAS_G12D exchange assay IC50) (KRAS G12D) | SMILES
† | † | Cc1nc2c(F)c(-c3cccc(Cl)c3Cl)c(CCC#N)cc2c2c1cc([C@H]1[C@H]3C[C@H](CN(C(=O)NCC(F)(F)F)C3)N1C(=O)C1CC1)n2[C@H]1[C@H]2CN[C@@H]1C2 (atropisomer, axis not shown; (Ra)) [Example 109, (1 S,5R,7R)-7-((Ra)-1-((1R,4R,5S)-2-Azabicyclo[2.1.1]hexan-5-yl)-8-(2-cyanoethyl)-7-(2,3-dichlorophenyl)-6-fluoro-4-methyl-1H-pyrrolo[3,2-c]quinolin-2-yl)-6-(cyclopropanecarbonyl)-N-(2,2,2-trifluoroethyl)-3,6-diazabicyclo[3.2.1]octane-3-carboxamide]
† | † | Cc1nc2c(F)c(-c3cccc(Cl)c3Cl)c(CCC#N)cc2c2c1cc(C1C3CC(CN(C4CCCCC4)C3)N1C(=O)C1CC1)n2C1C2CNC1C2 (atropisomer, axis not shown; (Ra)) [Example 114, 3-((Ra)-1-((1R,4R,5S)-2-Azabicyclo[2.1.1]hexan-5-yl)-2-((1R,5R,7R)-3-cyclohexyl-6-(cyclopropanecarbonyl)-3,6-diazabicyclo[3.2.1]octan-7-yl)-7-(2,3-dichlorophenyl)-6-fluoro-4-methyl-1H-pyrrolo[3,2-c]quinolin-8-yl)propanenitrile]
† | †† | Cc1nc2c(F)c(-c3cccc(Cl)c3Cl)c(CCC#N)cc2c2c1cc([C@H]1[C@H]3C[C@H](CN(c4ccc(C(F)(F)F)cc4)C3=O)N1C(=O)C1CC1)n2[C@H]1[C@H]2CN[C@@H]1C2 (atropisomer, axis not shown; (Ra)) [Example 120a, 3-((Ra)-1-((1R,4R,5S)-2-Azabicyclo[2.1.1]hexan-5-yl)-2-((1R,5R,7R)-6-(cyclopropanecarbonyl)-2-oxo-3-(4-(trifluoromethyl)phenyl)-3,6-diazabicyclo[3.2.1]octan-7-yl)-7-(2,3-dichlorophenyl)-6-fluoro-4-methyl-1H-pyrrolo[3,2-c]quinolin-8-yl)propanenitrile]
† | † | Cc1nc2c(F)c(-c3cccc(Cl)c3Cl)c(CCC#N)cc2c2c1cc([C@H]1[C@H]3C[C@H](C(=O)N(c4ccc(C(F)(F)F)cc4)C3)N1C(=O)C1CC1)n2[C@H]1[C@H]2CN[C@@H]1C2 (atropisomer, axis not shown; (Ra)) [Example 120b, 3-((Ra)-1-((1R,4R,5S)-2-Azabicyclo[2.1.1]hexan-5-yl)-2-((1S,5R,7R)-6-(cyclopropanecarbonyl)-4-oxo-3-(4-(trifluoromethyl)phenyl)-3,6-diazabicyclo[3.2.1]octan-7-yl)-7-(2,3-dichlorophenyl)-6-fluoro-4-methyl-1H-pyrrolo[3,2-c]quinolin-8-yl)propanenitrile]
† | †† | [2H]C1([2H])[C@@H]2C[C@H](CN1c1ncc(C(C)C)s1)N(C(=O)C1CC1)[C@H]2c1cc2c(C)nc3c(F)c(-c4cccc(Cl)c4Cl)c(CCC#N)cc3c2n1[C@H]1[C@H]2CN[C@@H]1C2 (atropisomer, axis not shown; (Ra)) [Example 123, 3-((Ra)-1-((1R,4R,5S)-2-Azabicyclo[2.1.1]hexan-5-yl)-2-((1 S,5R,7R)-6-(cyclopropanecarbonyl)-3-(5-isopropylthiazol-2-yl)-3,6-diazabicyclo[3.2.1]octan-7-yl-2,2-d2)-7-(2,3-dichlorophenyl)-6-fluoro-4-methyl-1H-pyrrolo[3,2-c]quinolin-8-yl)propanenitrile]

The next lines start with the compound.

SMILES | G12V_exchange (KRAS_G12V exchange assay IC50) (KRAS G12V) | G12D_exchange (KRAS_G12D exchange assay IC50) (KRAS G12D)
COc1nccc(N2C[C@@H]3C[C@H](C2)N(C(=O)C2CC2)[C@H]3c2cc3c(C)nc4c(F)c(-c5cccc(Cl)c5Cl)c(CCC#N)cc4c3n2[C@H]2[C@H]3CN[C@@H]2C3)c1C (atropisomer, axis not shown; (Ra)) [Example 77, 3-((Ra)-1-((1R,4R,5S)-2-azabicyclo[2.1.1]hexan-5-yl)-2-((1S,5R,7R)-6-(cyclopropanecarbonyl)-3-(2-methoxy-3-methylpyridin-4-yl)-3,6-diazabicyclo[3.2.1]octan-7-yl)-7-(2,3-dichlorophenyl)-6-fluoro-4-methyl-1H-pyrrolo[3,2-c]quinolin-8-yl)propanenitrile] | † | ††
Cc1nc2c(F)c(-c3cccc(Cl)c3Cl)c(CCC#N)cc2c2c1cc([C@H]1[C@H]3C[C@H](CN(c4ccnc(OCC5CC5)c4)C3)N1C(=O)C1CC1)n2[C@H]1[C@H]2CN[C@@H]1C2 (atropisomer, axis not shown; (Ra)) [Example 82, 3-((Ra)-1-((1R,4R,5S)-2-azabicyclo[2.1.1]hexan-5-yl)-2-((1S,5R,7R)-6-(cyclopropanecarbonyl)-3-(2-(cyclopropylmethoxy)pyridin-4-yl)-3,6-diazabicyclo[3.2.1]octan-7-yl)-7-(2,3-dichlorophenyl)-6-fluoro-4-methyl-1H-pyrrolo[3,2-c]quinolin-8-yl)propanenitrile] | † | †
Cc1nc2c(F)c(-c3cccc(Cl)c3Cl)c(CCC#N)cc2c2c1cc([C@H]1[C@H]3C[C@H](CN(c4ncc(C)n4C)C3)N1C(=O)C1CC1)n2[C@H]1[C@H]2CN[C@@H]1C2 (atropisomer, axis not shown; (Ra)) [Example 101, 3-((Ra)-1-((1R,4R,5S)-2-azabicyclo[2.1.1]hexan-5-yl)-2-((1S,5R,7R)-6-(cyclopropanecarbonyl)-3-(1,5-dimethyl-1H-imidazol-2-yl)-3,6-diazabicyclo[3.2.1]octan-7-yl)-7-(2,3-dichlorophenyl)-6-fluoro-4-methyl-1H-pyrrolo[3,2-c]quinolin-8-yl)propanenitrile] | † | †
Cc1nc2c(F)c(-c3cccc(Cl)c3Cl)c(CCC#N)cc2c2c1cc([C@H]1[C@H]3C[C@H](CN(c4ncc(C(F)F)s4)C3)N1C(=O)C1CC1)n2[C@H]1[C@H]2CN[C@@H]1C2 (atropisomer, axis not shown; (Ra)) [Example 102, 3-((Ra)-1-((1R,4R,5S)-2-azabicyclo[2.1.1]hexan-5-yl)-2-((1S,5R,7R)-6-(cyclopropanecarbonyl)-3-(5-(difluoromethyl)thiazol-2-yl)-3,6-diazabicyclo[3.2.1]octan-7-yl)-7-(2,3-dichlorophenyl)-6-fluoro-4-methyl-1H-pyrrolo[3,2-c]quinolin-8-yl)propanenitrile] | † | †
